Experimental data as given in paper PMC9725750, “The clinical pharmacology of tafenoquine in the radical cure of Plasmodium vivax malaria: An individual patient data meta-analysis” (eLife, 2022).

Test system: Plasmodium vivax
Assay: Radical cure efficacy: any P. vivax recurrence within 4 months in patients, pooled DETECTIVE part 1/2 and GATHER (logistic regression and Emax models)
Format: in vivo, human
Conditions: for mean recurrence proportion: empirical weight distribution
Excerpt: The primary endpoint for the main efficacy analyses was any P. vivax recurrence within 4 months. We chose the binary endpoint of any recurrence rather than the time to first recurrence because tafenoquine has both asexual stage antimalarial activity ([Fukuda et al., 2017]) and hypnozoiticidal activity. […] The choice of a particular cut-off for follow-up is thus a trade-off between sensitivity and specificity. Longer follow-up will increase the sensitivity of the endpoint (include more relapses) but decrease specificity (include more reinfections).
For all predictors we fitted Bayesian mixed effects logistic regression models (random intercepts for study and study site), with adjustment for day 0 parasitaemia (log transformed). Logistic regression allows inference of the odds-ratio for recurrence for the predictive variable of interest, assuming a linear relationship between the predictive variable and log-odds for recurrence.
For the mg/kg dose (the primary predictor of interest), the dose-response relationship was then assessed under a Bayesian Emax model, where the dose-dependent logit probability of recurrence is defined as: Emax(d,x)=α+βx+δd^k/d^k+γ^k,
The Emax model was also fitted with random intercepts for study and study site.
To determine the main predictors of recurrence, we fitted a multivariable penalised Bayesian logistic regression model. This included the following variables as predictors: the tafenoquine mg/kg dose; the plasma tafenoquine AUC[0,∞); the plasma tafenoquine Cmax; the day 7 MetHb concentration (%); the terminal elimination half-life t1/2; and the baseline parasite density. The model included random intercept terms for each study and study site. […] To avoid convergence issues resulting from the co-linearity of the predictors, the prior on all non-hierarchical coefficients was set to a Normal(0,0.5). This prior effectively shrinks the regression coefficients towards zero. It can be interpreted as follows: plausible odds-ratios for recurrence for one standard deviation change for each of the fixed effect predictors lie approximately between 0.38 and 2.7).
In a priori sensitivity analyses, all recurrences up until 6 months were included as both binary and time to event outcomes. The time to first recurrence was defined as a P. vivax episode between day 7 and day 180 with right censoring at the last recorded visit. We also re-ran the same models in patients who received a 300 mg single dose of tafenoquine only (i.e. the current recommended treatment).

## COc1cc(C)c2c(Oc3cccc(C(F)(F)F)c3)c(OC)cc(NC(C)CCCN)c2n1 (centres unmarked) [tafenoquine]
300 mg fixed dose vs no 8-aminoquinoline treatment
  reduction of recurrence rates: around 70%
450 mg fixed dose vs no 8-aminoquinoline treatment
  reduction of recurrence rates: around 85%
450 mg fixed dose, 95% CI 3.2–11.5
  mean recurrence proportion: 6.2%
Emax model, 3 mg/kg
  mean estimated recurrence proportion at 4 months: 28.5%
Emax model, 4 mg/kg
  mean estimated recurrence proportion at 4 months: 20.8%
Emax model, 5 mg/kg
  mean estimated recurrence proportion at 4 months: 14.2%
Emax model, 300 mg dose in a 60 kg adult (5 mg/kg)
  proportion of the maximal obtainable hypnozoiticidal effect: 70%
Emax model, dose 7.5 mg/kg (i.e. 450 mg)
  reduction in the risk of P. vivax recurrence: 90%
Emax model, dose of approximately 7.5 mg/kg, 15 mg/kg taken as maximum tolerated single dose
  proportion of the effect achieved with 15 mg/kg: 90%
TQ <3.75 mg/kg single dose + chloroquine, n=169
  Recurrence at 4 months: 57 (33.7) total number (%)
TQ [3.75,6.25) mg/kg single dose + chloroquine, n=368
  Recurrence at 4 months: 79 (21.5) total number (%)
TQ [6.25,8.75) mg/kg single dose + chloroquine, n=54
  Recurrence at 4 months: 4 (7.4) total number (%)
TQ ≥8.75 mg/kg single dose + chloroquine, n=43, 8.75 mg/kg
  Recurrence at 4 months: No recurrences
TQ ≥8.75 mg/kg single dose + chloroquine, n=43, listed as TQ, 8.75 mg/kg
  Recurrence at 4 months: 0 (0) total number (%)
Adult dose increased from 300 mg to 450 mg, Emax model, 95% CI 7–21
  number needed to treat to prevent one additional recurrence of malaria: 11 patients
Body weight distribution as in pre-registration trials
  effect on recurrence rates at 4 months of increasing dosing recommendation from 300mg to 450mg: more than halve
Data from DETECTIVE part 1 only, 95% CI 0.52–0.72
  OR for recurrence per mg/kg increase: 0.62
Fixed 300 mg dose in an adult, 95% CI 9.6–21.7
  mean recurrence proportion: 15.3%
Logistic model estimate, following 5 mg/kg tafenoquine, 95% CI 0.10–0.23
  mean probability of recurrence at 4 months: 0.15
Logistic regression, all data n=1073, 95% CI 0.65–0.76
  odds-ratio (OR) for recurrence within 4 months per additional mg/kg of tafenoquine: 0.70
logit-Emax model adjusted for mg/kg dose, 95% CI 0.65 to 0.99
  odds ratio for recurrence per absolute percentage point increase in the day 7 MetHb concentration: 0.81
Restricted to patients who received 300 mg dose, n=469, 95% CI 0.51–0.85
  OR for recurrence within 4 months per mg/kg tafenoquine: 0.66
weight-adjusted t1/2, adjusted for mg/kg dose, 95% CI 1.06–1.25
  odds ratio for recurrence at 4 months for each day increase in t1/2: 1.15
